Assay results taken from publication PMC7901646, “Pyrrolo[2′,3′:3,4]cyclohepta[1,2-d][1,2]oxazoles, a New Class of Antimitotic Agents Active against Multiple Malignant Cell Types” (Journal of Medicinal Chemistry, 2020).
pIC50: −log10 of the molar value.

What was measured:
Assay type in all cases: cell-based
MOLT-4 = assay: NCI-60 screen; conditions: Homo sapiens, Leukemia
Method: (§1) All the synthesized compounds 51–76 were tested at a 10^–5 M concentration for their antitumor activity on the full NCI-60 panel comprising cancer cell lines derived from nine human cancer cell types (leukemia, non-small-cell lung, colon, central nervous system, melanoma, ovarian, renal, prostate, and breast).[50]

CAKI-1 = assay: NCI-60 screen; conditions: Homo sapiens, Renal Cancer
Method: as §1

K-562 = assay: NCI-60 screen; conditions: Homo sapiens, K562; Leukemia
Method: as §1

SR = assay: NCI-60 screen; conditions: Homo sapiens, Leukemia
Method: as §1

SW-620 = assay: NCI-60 screen; conditions: Homo sapiens, Colon Cancer
Method: as §1

HT29 = assay: NCI-60 screen; conditions: Homo sapiens, HT-29; Colon Cancer
Method: as §1

SK-MEL-5 = assay: NCI-60 screen; conditions: Homo sapiens, Melanoma
Method: as §1

IGROV1 = assay: NCI-60 screen; conditions: Homo sapiens, IGROV-1; Ovarian Cancer
Method: as §1

PC-3 = assay: NCI-60 screen; conditions: Homo sapiens, Prostate Cancer
Method: as §1

SF-268 = assay: NCI-60 screen; conditions: Homo sapiens, CNS Cancer
Method: as §1

ACHN = assay: NCI-60 screen; conditions: Homo sapiens, Renal Cancer
Method: as §1

SF-295 = assay: NCI-60 screen; conditions: Homo sapiens, CNS Cancer
Method: as §1

MDA-MB-435 = assay: NCI-60 screen; conditions: Homo sapiens, Melanoma
Method: as §1

HL-60(TB) = assay: NCI-60 screen; conditions: Homo sapiens, Leukemia
Method: as §1

HCT-15 = assay: NCI-60 screen; conditions: Homo sapiens, Colon Cancer
Method: as §1

MCF7 = assay: NCI-60 screen; conditions: Homo sapiens, Breast Cancer
Method: as §1

A498 = assay: NCI-60 screen; conditions: Homo sapiens, Renal Cancer
Method: as §1

M14 = assay: NCI-60 screen; conditions: Homo sapiens, Melanoma
Method: as §1

TK-10 = assay: NCI-60 screen; conditions: Homo sapiens, Renal Cancer
Method: as §1

NCI-H460 = assay: NCI-60 screen; conditions: Homo sapiens, Non-Small-Cell Lung Cancer
Method: as §1

NCI/ADR-RES = assay: NCI-60 screen; conditions: Homo sapiens, Ovarian Cancer
Method: as §1

DU-145 = assay: NCI-60 screen; conditions: Homo sapiens, Prostate Cancer
Method: as §1

SK-OV-3 = assay: NCI-60 screen; conditions: Homo sapiens, Ovarian Cancer
Method: as §1

COLO 205 = assay: NCI-60 screen; conditions: Homo sapiens, Colon Cancer
Method: as §1

SU-DHL-10 (GCB DLBCL) = assay: MTT cell proliferation, lymphoma; conditions: Homo sapiens, SU-DHL10, 72 h; for activity at 1 µM: of untreated cells, read-out: Proliferating cells (%); for pIC50: MTT
Summary of the method: (§2)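 Lymphoma lines in RPMI-1640 with 10% FBS seeded at 1 × 10^5 cells/mL and treated with 1 μM, or in triplicate with serial dilutions over 40–10 000 nM, for 72 h at 37 °C, 5% CO2. Viability by MTT (4 h), SDS lysis, absorbance at 570 nm with medium-only blanks.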

VL51 ibrutinib-resistant = assay: MTT cell proliferation, lymphoma; conditions: Homo sapiens, 72 h, of untreated cells, read-out: Proliferating cells (%)
Summary of the method: as §2

HBL1 (ABC DLBCL) = assay: MTT cell proliferation, lymphoma; conditions: Homo sapiens, 72 h; for activity at 1 µM: of untreated cells, read-out: Proliferating cells (%); for pIC50: MTT
Summary of the method: as §2

[1] = test system: VL51 idelalisib-resistant; assay: MTT cell proliferation, lymphoma; conditions: Homo sapiens, 72 h, of untreated cells, read-out: Proliferating cells (%)
Summary of the method: as §2

MINO (MCL) = assay: MTT cell proliferation, lymphoma; conditions: Homo sapiens, 72 h; for activity at 1 µM: of untreated cells, read-out: Proliferating cells (%); for pIC50: MTT
Summary of the method: as §2

VL51 (MZL) = assay: MTT cell proliferation, lymphoma; conditions: Homo sapiens, 72 h; for activity at 1 µM: of untreated cells, read-out: Proliferating cells (%); for pIC50: MTT
Summary of the method: as §2

NCI-H522 = assay: NCI-60 screen; conditions: Homo sapiens, Non-Small-Cell Lung Cancer
Source text: (§3) on the full NCI-60 panel comprising cancer cell lines derived from nine human cancer cell types (leukemia, non-small-cell lung, colon, central nervous system, melanoma, ovarian, renal, prostate, and breast).[50]

KM12 = assay: NCI-60 screen; conditions: Homo sapiens, Colon Cancer
Source text: as §3

OVCAR-3 = assay: NCI-60 screen; conditions: Homo sapiens, Ovarian Cancer
Source text: as §3

LOX IMVI = assay: NCI-60 screen; conditions: Homo sapiens, Melanoma
Source text: as §3

SMILES	GI50 (MOLT-4) [µM]	GI50 (CAKI-1) [µM]	GI50 (K-562) [µM]	GI50 (SR) [µM]	GI50 (SW-620) [µM]	GI50 (HT29) [µM]	GI50 (SK-MEL-5) [µM]	GI50 (IGROV1) [µM]	GI50 (PC-3) [µM]	GI50 (SF-268) [µM]	GI50 (ACHN) [µM]	GI50 (SF-295) [µM]	GI50 (MDA-MB-435) [µM]	GI50 (HL-60(TB)) [µM]	GI50 (HCT-15) [µM]	GI50 (MCF7) [µM]	GI50 (A498) [µM]	GI50 (M14) [µM]	GI50 (TK-10) [µM]	GI50 (NCI-H460) [µM]	further results
CCOC(=O)c1cc2c(n1Cc1cc(OC)c(OC)c(OC)c1)-c1oncc1CCC2 [Compound 67, Ethyl 9-(3,4,5-Trimethoxybenzyl)-4,5,6,9-tetrahydropyrrolo[2′,3′:3,4]cyclohepta[1,2-d][1,2]oxazole-8-carboxylate]	0.39	0.07	0.13	0.04	0.14	0.07	0.17	0.06	0.17	0.52	0.29	0.44	0.02	0.19	0.16	0.04	0.11	0.15	64.9	0.23	GI50 (NCI/ADR-RES): 0.06 µM; GI50 (DU-145): 0.28 µM; GI50 (SK-OV-3): 0.13 µM; GI50 (COLO 205): 0.04 µM; activity at 1 µM (SU-DHL-10 (GCB DLBCL)): 11.2%; pIC50 (SU-DHL-10 (GCB DLBCL)): 6.22; activity at 1 µM (VL51 ibrutinib-resistant): 40.4%; activity at 1 µM (HBL1 (ABC DLBCL)): 24.2%; pIC50 (HBL1 (ABC DLBCL)): 6.05; activity at 1 µM [1]: 36.6%; activity at 1 µM (MINO (MCL)): 8.9%; pIC50 (MINO (MCL)): 6.22; activity at 1 µM (VL51 (MZL)): 40.5%; pIC50 (VL51 (MZL)): 6.30; GI50 (NCI-H522): 0.01 µM; GI50 (KM12): 0.05 µM; GI50 (OVCAR-3): 0.03 µM; GI50 (LOX IMVI): 0.41 µM
CCOC(=O)c1c(Cl)c2c(n1Cc1ccccc1)-c1oncc1CCC2 [Compound 70, Ethyl 7-Chloro-9-benzyl-4,5,6,9-tetrahydropyrrolo[2′,3′:3,4]cyclohepta[1,2-d][1,2]oxazole-8-carboxylate]	3.58	3.51	3.68	1.8	3.81	2.95	3.53	4.39	3.16	> 100	5.89	> 100	1.4	3.32	3.39	3.21	4.38	3.78	> 100	3.62	GI50 (NCI/ADR-RES): 2.83 µM; GI50 (DU-145): > 100 µM; GI50 (SK-OV-3): > 100 µM; GI50 (COLO 205): 3.53 µM; activity at 1 µM (SU-DHL-10 (GCB DLBCL)): 69.5%; pIC50 (SU-DHL-10 (GCB DLBCL)): 5.05; activity at 1 µM (VL51 ibrutinib-resistant): 104%; activity at 1 µM (HBL1 (ABC DLBCL)): 104%; pIC50 (HBL1 (ABC DLBCL)): < 5.00; activity at 1 µM [1]: 111%; activity at 1 µM (MINO (MCL)): 104%; pIC50 (MINO (MCL)): < 5.00; activity at 1 µM (VL51 (MZL)): 108%; pIC50 (VL51 (MZL)): < 5.00; GI50 (NCI-H522): 1.29 µM; GI50 (KM12): 3.7 µM; GI50 (OVCAR-3): 3.13 µM; GI50 (LOX IMVI): 5.26 µM
CCOC(=O)c1c(Cl)c2c(n1Cc1cc(OC)cc(OC)c1)-c1oncc1CCC2 [Compound 75, Ethyl 7-Chloro-9-(3,5-dimethoxybenzyl)-4,5,6,9-tetrahydropyrrolo[2′,3′:3,4]cyclohepta[1,2-d][1,2]oxazole-8-carboxylate]	0.58	0.28	0.29	0.07	0.32	0.27	0.49	0.34	0.29	1.91	0.94	0.06	0.03	0.31	0.37	0.1	0.17	0.26	10.3	0.35	GI50 (NCI/ADR-RES): 0.2 µM; GI50 (DU-145): 0.35 µM; GI50 (SK-OV-3): 0.24 µM; GI50 (COLO 205): 0.17 µM; activity at 1 µM (SU-DHL-10 (GCB DLBCL)): 11.5%; pIC50 (SU-DHL-10 (GCB DLBCL)): 6.05; activity at 1 µM (VL51 ibrutinib-resistant): 40.8%; activity at 1 µM (HBL1 (ABC DLBCL)): 20.7%; pIC50 (HBL1 (ABC DLBCL)): 6.05; activity at 1 µM [1]: 40.2%; activity at 1 µM (MINO (MCL)): 9.5%; pIC50 (MINO (MCL)): 6.05; activity at 1 µM (VL51 (MZL)): 38.1%; pIC50 (VL51 (MZL)): 6.10; GI50 (NCI-H522): 0.03 µM; GI50 (KM12): 0.32 µM; GI50 (OVCAR-3): 0.19 µM; GI50 (LOX IMVI): 0.88 µM
